Assays:
Type in all cases: cell-based
[1] = system: HER3-ss+4aa/Gaussia Luciferase; experiment: Dox-Induced Her3-ss-Gluc Assay; details: 24 hr doxycycline induction, 293FRT/TO cells, Gaussia luciferase signal; read-out: 24 hr Dox Inducible Her3(ss + 4)Gluc 293FRT/TO: Mean IC50
Protocol: (§1) Transfected cells were selected for resistance to the selectable markers Hygromycin and Blasticidin to create a stable cell line that contained the HER3-ss+4aa/Gaussia Luciferase cDNA insert whose expression was regulated under the T-REx™ system. The day before assay, cells were trypsinized and plated in 384-well tissue culture plates. The next day, compound dilutions in DMSO/media containing doxycycline were added to the wells and incubated at 37° C., 5% CO2.
(§2) For chemical structures that include one or more stereoisomers, but are illustrated without indicating stereochemistry, the assay data refers to a mixture of stereoisomers.

[2] = system: human multiple myeloma cell line U266B1; experiment: U266 Cell Viability Assay; details: U-266, 48 hr, U266B1 cells, Celltiter-Glo, read-out: 48 hr U266 Viability Celltiter-Glo: Mean EC50
Protocol: Cells were plated in 384-well tissue culture plates and treated with compound dilutions in DMSO/media. Plates were incubated at 37° C., 5% CO2 for 48 hours. After 48 hours, Celltiter-Glo® (Promega) was added to each well and luciferase signal was quantified using Tecan Infinite M1000 Pro for cell viability determination.
as §2

[3] = system: PD1-ss+10aa/Gaussia Luciferase; experiment: Dox-Induced PD1-ss-Gluc Assay; details: 24 hr doxycycline induction, 293FRT/TO cells, Gaussia luciferase signal; read-out: 24 hr Dox Inducible PD1ssGluc 293FRT/TO: Mean IC50
Protocol: as §1, with “PD1-ss+10aa/Gaussia” for “HER3-ss+4aa/Gaussia”
as §2

[4] = system: IL-2-FL/Gaussia Luciferase; experiment: Dox Induced IL2-FL-Gluc Assay; details: 24 hr doxycycline induction, 293FRT/TO cells, Gaussia luciferase signal; read-out: 24 hr Dox Inducible IL2FLGIuc 293FRT/TO: Mean IC50
Protocol: as §1, with “IL-2-FL/Gaussia” for “HER3-ss+4aa/Gaussia”, “T-RExTM” for “T-REx™”, “CO2. […] For chemical structures that include one or more stereoisomers, but are illustrated without indicating stereochemistry, the assay data refers to a mixture of stereoisomers.” for “CO2.”

[5] = system: human multiple myeloma cell line NCI-H929; experiment: H929 Cell Viability Assay; details: 48 hr, NCI-H929 cells, Celltiter-Glo, read-out: 48 hr H929 Viability Celltiter-Glo: Mean EC50
Protocol: Plates were incubated at 37° C., 5% CO2 for 48 hours. After 48 hours, Celltiter-Glo® (Promega) was added to each well and luciferase signal was quantified using Tecan Infinite M1000 Pro for cell viability determination.
as §2

[6] = system: TNFα-FL/Gaussia Luciferase; experiment: Dox Induced TNFα-FL-Gluc Assay; details: 24 hr doxycycline induction, 293FRT/TO cells, Gaussia luciferase signal; read-out: 24 hr Dox Inducible TNFaFLGluc 293FRT/TO: Mean IC50
Protocol: as §1, with “TNFα-FL/Gaussia” for “HER3-ss+4aa/Gaussia”, “T-RExTM” for “T-REx™”, “CO2. […] For chemical structures that include one or more stereoisomers, but are illustrated without indicating stereochemistry, the assay data refers to a mixture of stereoisomers.” for “CO2.”

Structure (SMILES): O=C(Nc1nc(CCc2ccccc2)cs1)c1cccn1Cc1ccncc1 [Compound A13, N-(4-phenethylthiazol-2-yl)-1-(pyridin-4-ylmethyl)-1H-pyrrole-2-carboxamide]
- IC50 [1]: 0.382 µM
- EC50 [2]: > 25 µM
- IC50 [3]: 0.148 µM
- IC50 [4]: 0.648 µM
- EC50 [5]: 18.8 µM
- IC50 [6]: 3.31 µM

Structure (SMILES): O=C(Nc1nc(/C=C/c2ccccc2)cs1)c1cccn1Cc1ccncc1 [Compound A14, 1-(pyridin-4-ylmethyl)-N-(4-styrylthiazol-2-yl)-1H-pyrrole-2-carboxamide]
- IC50 [1]: 0.568 µM
- EC50 [2]: > 25 µM
- IC50 [3]: 0.153 µM
- IC50 [4]: 1.05 µM
- EC50 [5]: > 25 µM
- IC50 [6]: 5.11 µM

Structure (SMILES): CC(C)(OCC(F)(F)F)c1csc(NC(=O)c2cccn2Cc2ccncc2)n1 [Compound A15, 1-(pyridin-4-ylmethyl)-N-(4-(2-(2,2,2-trifluoroethoxy)propan-2-yl)thiazol-2-yl)-1H-pyrrole-2-carboxamide]
- IC50 [1]: 0.318 µM
- EC50 [2]: > 25 µM
- IC50 [3]: 0.169 µM
- IC50 [4]: 0.11 µM
- EC50 [5]: 16.6 µM
- IC50 [6]: 5.43 µM

Structure (SMILES): CC(C)OC(C)(C)c1csc(NC(=O)c2cccn2Cc2ccncc2)n1 [Compound A16, N-(4-(2-isopropoxypropan-2-yl)thiazol-2-yl)-1-(pyridin-4-ylmethyl)-1H-pyrrole-2-carboxamide]
- IC50 [1]: 0.377 µM
- EC50 [2]: > 25 µM
- IC50 [3]: 0.185 µM
- IC50 [4]: 0.266 µM
- EC50 [5]: > 23.9 µM
- IC50 [6]: 5.01 µM

Structure (SMILES): O=C(Nc1nc(Cc2ccccc2)cs1)c1cccn1Cc1ccncc1 [Compound A17, N-(4-benzylthiazol-2-yl)-1-(pyridin-4-ylmethyl)-1H-pyrrole-2-carboxamide]
- IC50 [1]: 0.56 µM
- EC50 [2]: > 25 µM
- IC50 [3]: 0.191 µM
- IC50 [4]: 0.804 µM
- EC50 [5]: 20.8 µM
- IC50 [6]: 2.23 µM

Structure (SMILES): C[C@@H](OC(C)(C)c1csc(NC(=O)c2cccn2Cc2ccncc2)n1)c1ccccc1 [Compound A18, (R)-N-(4-(2-(1-phenylethoxy)propan-2-yl)thiazol-2-yl)-1-(pyridin-4-ylmethyl)-1H-pyrrole-2-carboxamide]
- IC50 [1]: 0.461 µM
- EC50 [2]: > 25 µM
- IC50 [3]: 0.226 µM
- IC50 [4]: 0.718 µM
- EC50 [5]: 15.1 µM
- IC50 [6]: 1.35 µM

Structure (SMILES): O=C(Nc1nc(C(F)(F)F)cs1)c1cccn1Cc1ccncc1 [Compound A19, 1-(pyridin-4-ylmethyl)-N-(4-(trifluoromethyl)thiazol-2-yl)-1H-pyrrole-2-carboxamide]
- IC50 [1]: 0.492 µM
- EC50 [2]: > 25 µM
- IC50 [3]: 0.246 µM
- IC50 [4]: 0.529 µM
- EC50 [5]: > 25 µM
- IC50 [6]: 8.54 µM

Structure (SMILES): Cc1sc(NC(=O)c2cccn2Cc2ccncc2)nc1C(C)OC(C)C (stereo not drawn) [Compound A20, N-(4-(1-isopropoxyethyl)-5-methylthiazol-2-yl)-1-(pyridin-4-ylmethyl)-1H-pyrrole-2-carboxamide]
- IC50 [1]: 0.51 µM
- EC50 [2]: > 25 µM
- IC50 [3]: 0.248 µM
- IC50 [4]: 0.351 µM
- EC50 [5]: > 25 µM
- IC50 [6]: 7.17 µM

Structure (SMILES): CC(c1ccccc1)c1csc(NC(=O)c2cccn2Cc2ccncc2)n1 (stereo not drawn) [Compound A21]
- IC50 [1]: 0.59 µM
- EC50 [2]: > 25 µM
- IC50 [3]: 0.259 µM
- IC50 [4]: 0.502 µM
- EC50 [5]: > 25 µM
- IC50 [6]: 3.68 µM

Structure (SMILES): CC1(C)CCc2sc(NC(=O)c3cccn3Cc3ccncc3)nc21 [Compound A22, N-(4,4-dimethyl-5,6-dihydro-4H-cyclopenta[d]thiazol-2-yl)-1-(pyridin-4-ylmethyl)-1H-pyrrole-2-carboxamide]
- IC50 [1]: 0.503 µM
- EC50 [2]: > 25 µM
- IC50 [3]: 0.271 µM
- IC50 [4]: 0.46 µM
- EC50 [5]: > 25 µM
- IC50 [6]: 8.83 µM

Structure (SMILES): CCC(C)c1csc(NC(=O)c2cccn2Cc2ccncc2)n1 (stereo not drawn) [Compound A23]
- IC50 [1]: 0.447 µM
- EC50 [2]: > 25 µM
- IC50 [3]: 0.29 µM
- IC50 [4]: 0.429 µM
- EC50 [5]: > 25 µM
- IC50 [6]: 5.47 µM

Structure (SMILES): Cc1cnccc1Cn1cccc1C(=O)Nc1nc(C(C)(C)OC(C)C)cs1 [Compound A24, N-(4-(2-isopropoxypropan-2-yl)thiazol-2-yl)-1-((3-methylpyridin-4-yl)methyl)-1H-pyrrole-2-carboxamide]
- IC50 [1]: 0.619 µM
- EC50 [2]: > 25 µM
- IC50 [3]: 0.303 µM
- IC50 [4]: 0.477 µM
- EC50 [5]: > 25 µM
- IC50 [6]: 11.7 µM

Structure (SMILES): CC(C)OC(C)(C)c1csc(NC(=O)c2cccn2Cc2ccncc2F)n1 [Compound A25, 1-((3-fluoropyridin-4-yl)methyl)-N-(4-(2-isopropoxypropan-2-yl)thiazol-2-yl)-1H-pyrrole-2-carboxamide]
- IC50 [1]: 0.692 µM
- EC50 [2]: > 25 µM
- IC50 [3]: 0.314 µM
- IC50 [4]: 0.49 µM
- EC50 [5]: > 25 µM
- IC50 [6]: 9.98 µM

Structure (SMILES): CC(C)c1csc(NC(=O)c2cccn2Cc2ccncc2)n1 [Compound A26, N-(4-isopropylthiazol-2-yl)-1-(pyridin-4-ylmethyl)-1H-pyrrole-2-carboxamide]
- IC50 [1]: 0.817 µM
- EC50 [2]: > 25 µM
- IC50 [3]: 0.319 µM
- IC50 [4]: 0.759 µM
- EC50 [5]: > 25 µM
- IC50 [6]: 10.7 µM

Structure (SMILES): CCOC(C)(C)c1csc(NC(=O)c2cccn2Cc2ccncc2)n1 [Compound A27, N-(4-(2-ethoxypropan-2-yl)thiazol-2-yl)-1-(pyridin-4-ylmethyl)-1H-pyrrole-2-carboxamide]
- IC50 [1]: 0.822 µM
- EC50 [2]: > 25 µM
- IC50 [3]: 0.445 µM
- IC50 [4]: 0.32 µM
- EC50 [5]: > 25 µM
- IC50 [6]: 9.53 µM

Structure (SMILES): CC(C)OC(C)c1csc(NC(=O)c2cccn2Cc2ccncc2)n1 (stereo not drawn) [Compound A28, N-(4-(1-isopropoxyethyl)thiazol-2-yl)-1-(pyridin-4-ylmethyl)-1H-pyrrole-2-carboxamide]
- IC50 [1]: 0.752 µM
- EC50 [2]: > 25 µM
- IC50 [3]: 0.462 µM
- IC50 [4]: 0.401 µM
- EC50 [5]: > 25 µM
- IC50 [6]: 3.95 µM

Structure (SMILES): CC(F)(F)c1csc(NC(=O)c2cccn2Cc2ccncc2)n1 [Compound A29, N-(4-(1,1-difluoroethyl)thiazol-2-yl)-1-(pyridin-4-ylmethyl)-1H-pyrrole-2-carboxamide]
- IC50 [1]: 1.24 µM
- EC50 [2]: > 25 µM
- IC50 [3]: 0.488 µM
- IC50 [4]: 0.935 µM
- EC50 [5]: > 25 µM
- IC50 [6]: 19.6 µM

Structure (SMILES): CC(C)OC(C)(C)c1nc(NC(=O)c2cccn2Cc2ccncc2)sc1Br [Compound A30]
- IC50 [1]: 0.809 µM
- EC50 [2]: > 25 µM
- IC50 [3]: 0.552 µM
- IC50 [4]: 0.927 µM
- EC50 [5]: 22.7 µM
- IC50 [6]: 11.8 µM

Structure (SMILES): O=C(Nc1nc(C2CCC2)cs1)c1cccn1Cc1ccncc1 [Compound A31]
- IC50 [1]: 1.63 µM
- EC50 [2]: > 25 µM
- IC50 [3]: 0.596 µM
- IC50 [4]: 1.34 µM
- EC50 [5]: > 25 µM
- IC50 [6]: 11.8 µM

Structure (SMILES): CCc1nc(NC(=O)c2cccn2Cc2ccncc2)sc1C [Compound A32, N-(4-ethyl-5-methylthiazol-2-yl)-1-(pyridin-4-ylmethyl)-1H-pyrrole-2-carboxamide]
- IC50 [1]: 1.33 µM
- EC50 [2]: > 25 µM
- IC50 [3]: 0.633 µM
- IC50 [4]: 1.98 µM
- EC50 [5]: > 25 µM
- IC50 [6]: > 20.3 µM

Structure (SMILES): O=C(Nc1nc(/C=C/c2ccccc2)cs1)c1cccn1CCCc1ccncc1 [Compound A33, 1-(3-(pyridin-4-yl)propyl)-N-(4-styrylthiazol-2-yl)-1H-pyrrole-2-carboxamide]
- IC50 [1]: 1.62 µM
- EC50 [2]: 6.89 µM
- IC50 [3]: 0.663 µM
- IC50 [4]: 2.47 µM
- EC50 [5]: 8.99 µM
- IC50 [6]: > 25 µM

Structure (SMILES): O=C(Nc1ncc(Cc2ccccc2)s1)c1cccn1Cc1ccncc1 [Compound A34, N-(5-benzylthiazol-2-yl)-1-(pyridin-4-ylmethyl)-1H-pyrrole-2-carboxamide]
- IC50 [1]: 2.42 µM
- EC50 [2]: > 25 µM
- IC50 [3]: 0.674 µM
- IC50 [4]: 4.24 µM
- EC50 [5]: > 25 µM
- IC50 [6]: > 25 µM

— patent US20220153732A1, “PROTEIN SECRETION INHIBITORS” (KEZAR LIFE SCIENCES, priority 2019, published 2022)
